In general, IC50 refers to the concentration that gives 50% inhibition. A lower IC50 goes with greater potency in that assay.

In this experiment the target is T1, ALDH1A3 (Homo sapiens, UniProt P47895).
T1 sequence (P47895 1-512): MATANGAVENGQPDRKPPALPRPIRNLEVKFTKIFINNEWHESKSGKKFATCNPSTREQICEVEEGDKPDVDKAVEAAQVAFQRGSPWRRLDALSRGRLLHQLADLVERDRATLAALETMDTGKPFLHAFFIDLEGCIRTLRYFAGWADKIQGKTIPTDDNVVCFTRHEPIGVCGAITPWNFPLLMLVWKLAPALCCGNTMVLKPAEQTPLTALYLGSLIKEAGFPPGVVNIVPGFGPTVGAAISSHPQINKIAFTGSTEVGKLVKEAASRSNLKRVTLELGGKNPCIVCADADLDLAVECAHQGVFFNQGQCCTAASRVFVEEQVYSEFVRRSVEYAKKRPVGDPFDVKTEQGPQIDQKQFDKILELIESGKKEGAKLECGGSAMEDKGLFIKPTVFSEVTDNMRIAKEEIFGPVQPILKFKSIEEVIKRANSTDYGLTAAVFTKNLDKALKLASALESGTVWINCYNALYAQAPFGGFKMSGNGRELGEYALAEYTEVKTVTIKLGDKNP
Nature of the experiment: ALDH1A3 cellular assay (ALDEFLUOR) in WM266.4 melanoma cells. The class given is cell-based. To be noted: WM266.4 cells; 60 min incubation; percentage of ALDH-positive cells. An excerpt:
Materials: WM266.4 cells were procured from ATCC. (WM266-4 is a metastatic human melanoma cell line.) The ALDEFLUOR™ Assay kit (cat. no. 01700) and Aldefluor buffer (cat. no. 01702) were procured from StemCell Technologies. Dulbecco's Modified Eagle Medium (DMEM), FluoroBrite DMEM, Glutamax and Hoechst 33342 were purchased from ThermoFisher. Verapamil was obtained from Fluorochem. FBS was obtained from Sigma. Echo Qualified 384-well low-dead-volume microplate and Echo Qualified 384-well polypropylene microplate were purchased from Labcyte, and the Microclear black sterile polystyrene microplate from Greiner Bio-One.
Method: Intracellular inhibition of ALDH1A3 was assessed using the ALDEFLUOR™ Assay kit. The activated ALDEFLUOR™ reagent, BODIPY-aminoacetaldehyde (BAAA), is a fluorescent non-toxic substrate for ALDH enzymes, which freely diffuses into intact and viable cells. In the presence of ALDH enzyme activity, BAAA is converted into BODIPY-aminoacetate (BAA), which is retained inside the cells. The amount of fluorescent reaction product is proportional to the ALDH activity in the cells and is measured using an imaging cytometer. Active efflux of the reaction product is inhibited by an efflux inhibitor (Verapamil) in the ALDEFLUOR™ Assay Buffer.
A frozen vial of cells was recovered into a T225 flask containing DMEM, high glucose, 10% FBS, 1% glutamax, 1% HEPES. The following day, media was changed and cells were ready for assay from 72 hours after recovery. Cells were transferred into FluoroBrite DMEM (plus 10% FBS, 1% glutamax and 1% HEPES) and diluted to 2.5×10^5 cells/mL. 30 μL of cells were added to each well to give 7500 cells/well and then incubated overnight at 37° C., 5% CO2. After overnight incubation, the media was aspirated and replaced by 20 μL substrate/Hoechst buffer solution. Each plate requires 9 mL of solution comprising, 9 mL ALDEFLUOR assay buffer, 18 μL BAAA substrate (final concentration 500 nM), 4.5 μL Hoechst 33342 (final concentration 5 μg/mL) and 4.5 μL Verapamil (final concentration 50 μM). Compounds were prepared for dosing using the Echo acoustic dispenser by aliquoting into a source plate and dosed directly onto the cell assay plate to give a 10 point dose response per compound ranging from 10 μM to 0.0005 μM final concentration in 3-fold dilution steps. Plates were then incubated for 60 minutes at 37° C., 5% CO2. The buffer was then aspirated and cells washed twice in ice-cold PBS. Plates were kept on ice and 30 μL of cold Aldefluor buffer with 50 μM verapamil dispensed per well. The plates were then imaged using the CellInsight fluorescent microscope. Hoechst fluorescence in the 405 nm channel indicated the nuclear area and this was used to define nuclei and then the surrounding cellular area. Fluorescence in the 488 nm channel of the defined cellular area indicates ALDH1A3 activity. The percentage of cells positive for ALDH activity was plotted versus compound concentration to generate EC50 values using curve fitting parameters defined in Dotmatics software.
`O=C1CSc2cc(OCCN3CCCC3c3cccnc3)ccc2N1` (centres unmarked) [ALDHI-2028, 7-[2-[2-(3-pyridyl)pyrrolidin-1-yl]ethoxy]-4H-1,4-benzothiazin-3-one] came in with an IC50 of 100 to 1000 nM.
For `O=C1CCc2cc(OCCN(CCO)Cc3cccc(F)c3)ccc2N1` [ALDHI-3002, 6-[2-[(3-fluorophenyl)methyl-(2-hydroxyethyl)amino]ethoxy]-3,4-dihydro-1H-quinolin-2-one] the value was under 100 nM; for `C[C@H](c1ccccc1)N(CCO)CCOc1ccc2c(c1)CCC(=O)N2` [ALDHI-3006, 6-[2-[2-hydroxyethyl-[(1R)-1-phenylethyl]amino]ethoxy]-3,4-dihydro-1H-quinolin-2-one], 100 to 1000 nM.
The value for `O=C1CCc2cc(NC(=O)c3cncnc3-c3cccc(F)c3)ccc2N1` [ALDHI-1018, 4-(3-fluorophenyl)-N-(2-oxo-3,4-dihydro-1H-quinolin-6-yl)pyrimidine-5-carboxamide] was 100 to 1000 nM; that for `O=c1ccc2cc(OCCN3CCCC3c3cccc(F)c3)ccc2[nH]1` (centres unmarked) [ALDHI-2022, 6-[2-[2-(3-fluorophenyl)pyrrolidin-1-yl]ethoxy]-1H-quinolin-2-one] was 100 to 1000 nM; that for `CN(CCOc1ccc2c(c1)CCC(=O)N2)Cc1cccnc1` [ALDHI-3010, 6-[2-[methyl(3-pyridylmethyl)amino]ethoxy]-3,4-dihydro-1H-quinolin-2-one] was 100 to 1000 nM.
For `O=C1CCc2cc(OCCN3CCCC3c3ccccc3)ccc2N1` (centres unmarked) [ALDHI-2019, 6-[2-(2-phenylpyrrolidin-1-yl)ethoxy]-3,4-dihydro-1H-quinolin-2-one] the value was 100 to 1000 nM; for `O=C1CCc2cc(OCCN3CCCC3c3ccc(F)cc3)ccc2N1` (centres unmarked) [ALDHI-2003, 6-[2-[2-(4-fluorophenyl)pyrrolidin-1-yl]ethoxy]-3,4-dihydro-1H-quinolin-2-one], 1000 to 10000 nM; for `O=C1CCc2cc(OCCN3CCCC3c3ccsc3)ccc2N1` (centres unmarked) [ALDHI-2014, 6-[2-[2-(3-thienyl)pyrrolidin-1-yl]ethoxy]-3,4-dihydro-1H-quinolin-2-one], 100 to 1000 nM.
In turn, `Cc1ccccc1C1CCCN1CCOc1ccc2c(c1)CCC(=O)N2` (centres unmarked) [ALDHI-2012, 6-[2-[2-(o-tolyl)pyrrolidin-1-yl]ethoxy]-3,4-dihydro-1H-quinolin-2-one] displayed a concentration for half-maximal inhibition (IC50) of 1000 to 10000 nM.
The value for `CCN(CC)CCN(CCOc1ccc2c(c1)CCC(=O)N2)Cc1ccccc1` [ALDHI-3004, 6-[2-[benzyl-[2-(diethylamino)ethyl]amino]ethoxy]-3,4-dihydro-1H-quinolin-2-one] was under 100 nM; that for `O=C1CCc2cc(OCCn3ccnc3-c3ccccc3)ccc2N1` [ALDHI-2041, 6-[2-(2-phenylimidazol-1-yl)ethoxy]-3,4-dihydro-1H-quinolin-2-one] was 1000 to 10000 nM; that for `O=C1CCc2cc(OCCN3CCCCC3c3cccc(F)c3)ccc2N1` (centres unmarked) [ALDHI-2038, 6-[2-[2-(3-fluorophenyl)-1-piperidyl]ethoxy]-3,4-dihydro-1H-quinolin-2-one] was 1000 to 10000 nM.
In turn, `Cc1cccc(C2CCCN2CCOc2ccc3c(c2)CCC(=O)N3)c1` (centres unmarked) [ALDHI-2011, 6-[2-[2-(m-tolyl)pyrrolidin-1-yl]ethoxy]-3,4-dihydro-1H-quinolin-2-one] showed a half-inhibitory concentration (IC50) of 1000 to 10000 nM.
For `Cc1ccc(C2CCCN2CCOc2ccc3c(c2)CCC(=O)N3)cc1` (centres unmarked) [ALDHI-2010, 6-[2-[2-(p-tolyl)pyrrolidin-1-yl]ethoxy]-3,4-dihydro-1H-quinolin-2-one] the value was 100 to 1000 nM; for `O=C1CCc2cc(OCCN3CCC3c3cccc(F)c3)ccc2N1` (centres unmarked) [ALDHI-2021, 6-[2-[2-(3-fluorophenyl)azetidin-1-yl]ethoxy]-3,4-dihydro-1H-quinolin-2-one], 1000 to 10000 nM.
For `O=C1CCc2cc(OCCN3CCCC3c3ccccn3)ccc2N1` (centres unmarked) [ALDHI-2006, 6-[2-[2-(2-pyridyl)pyrrolidin-1-yl]ethoxy]-3,4-dihydro-1H-quinolin-2-one] the value was 1000 to 10000 nM.

For the origin of these results see US20240174634A1, “Aldehyde Dehydrogenase Inhibitors and Their Therapeutic Use” (priority 2020, published 2024).
